Measurements reported in patent US20030216416A1, “Novel crystalline of n-[4-[2-(2-amino-4,7-dihydro-4oxo-3h-pyrrolo[2,3-d]pyrimidin-5-yl)ethyl]benzoyl]-l-glutamic acid and process therefor” (priority 2002, published 2003).

What was measured:
[1] = Stability study: total related substances of crystalline form lots on storage
[2] = Stability study: solvents (water) content of crystalline form lots on storage
[3] = 2.5 hydrate lots stored at 5° C.
[4] = accelerated conditions 30° C., 0 months
[5] = accelerated conditions 30° C., 1 month
[6] = accelerated conditions 30° C., 2 months
[7] = accelerated conditions 30° C., 3 months
[8] = accelerated conditions 30° C., 6 months
[9] = stored at 5° C., 0 months, lots A-C water and ethanol, lot D water only
[10] = heptahydrate lot stored at 5° C.
[11] = heptahydrate lot, 25° C./60% relative humidity and room temperature/uncontrolled humidity
[12] = accelerated conditions 25° C., 60% relative humidity

Nc1nc2[nH]cc(CCc3ccc(C(=O)N[C@@H](CCC(=O)O)C(=O)O)cc3)c2c(=O)[nH]1 [Lot B, pemetrexed disodium]
change in the percent total related substances over time [1, 3]: did not change significantly over time | change in the percent total related substances over time ([1]; accelerated conditions 30° C.): did change significantly over time | Total Related Substances Results [1, 4]: 0.4% of Total | Total Related Substances Results [1, 5]: 0.4% of Total | Total Related Substances Results [1, 6]: 0.7% of Total | Total Related Substances Results [1, 7]: 0.6% of Total | Total Related Substances Results [1, 8]: 1.2% of Total | Total Related Substances Results ([1]; stored at 5° C., 0 months): 0.4% of Total | Total Related Substances Results ([1]; stored at 5° C., 3 months): 0.3% of Total | Total Related Substances Results ([1]; stored at 5° C., 6 months): 0.5% of Total | Total Related Substances Results ([1]; stored at 5° C., 12 months): 0.4% of Total | Solvents Results [2, 4]: 11.0% of Total | Solvents Results [2, 5]: 15.5% of Total | Solvents Results [2, 6]: 12.9% of Total | Solvents Results [2, 7]: 11.5% of Total | Solvents Results [2, 8]: 11.2% of Total | Solvents Results [2, 9]: 11.0% of Total | Solvents Results ([2]; stored at 5° C., 3 months): 21.0% of Total | Solvents Results ([2]; stored at 5° C., 6 months): 21.1% of Total | Solvents Results ([2]; stored at 5° C., 12 months): 21.0% of Total

Nc1nc2[nH]cc(CCc3ccc(C(=O)N[C@@H](CCC(=O)[O-])C(=O)[O-])cc3)c2c(=O)[nH]1.[Na+].[Na+] [Heptahydrate Lot, disodium N-[4-[2-(2-amino-4,7-dihydro-4-oxo-3H-pyrrolo[2,3-d]-pyrimidin-5-yl)ethyl]benzoyl]-L-glutamic acid salt]
Total Related Substances Results ([1]; 5 C., 0 mo.): 0.41% | Total Related Substances Results ([1]; 5 C., 0.5 mo.): 0.42% | Total Related Substances Results ([1]; 5 C., 1 mo.): 0.43% | Total Related Substances Results ([1]; 5 C., 2 mo.): 0.45% | Total Related Substances Results ([1]; 5 C., 3 mo.): 0.42% | Total Related Substances Results ([1]; 5 C., 6 mo.): 0.42% | Total Related Substances Results ([1]; 5 C., 9 mo.): 0.40% | Total Related Substances Results ([1]; 5 C., 12 mo.): 0.42% | Total Related Substances Results ([1]; 25 C./60% RH, 0 mo.): 0.41% | Total Related Substances Results ([1]; 25 C./60% RH, 0.25 mo.): 0.40% | Total Related Substances Results ([1]; 25 C./60% RH, 0.5 mo.): 0.44% | Total Related Substances Results ([1]; 25 C./60% RH, 0.75 mo.): 0.39% | Total Related Substances Results ([1]; 25 C./60% RH, 1 mo.): 0.43% | Total Related Substances Results ([1]; 25 C./60% RH, 3 mo.): 0.42% | Total Related Substances Results ([1]; 25 C./60% RH, 6 mo.): 0.42% | Total Related Substances Results ([1]; 25 C./60% RH, 12 mo.): 0.39% | Total Related Substances Results ([1]; RT/uncontrolled, 0 mo.): 0.41% | Total Related Substances Results ([1]; RT/uncontrolled, 0.25 mo.): 0.40% | Total Related Substances Results ([1]; RT/uncontrolled, 0.5 mo.): 0.43% | Total Related Substances Results ([1]; RT/uncontrolled, 0.75 mo.): 0.41% | Total Related Substances Results ([1]; RT/uncontrolled, 1 mo.): 0.43% | Total Related Substances Results ([1]; RT/uncontrolled, 2 mo.): 0.44% | Total Related Substances Results ([1]; RT/uncontrolled, 3 mo.): 0.42% | change in the percent total related substances over time [1, 10]: did not change significantly over time | change in the percent total related substances over time ([1]; heptahydrate lot stored at accelerated conditions): did not change significantly over time | Solvents (Water) Results ([2]; 5° C., time 0): 21.0% | Solvents (Water) Results ([2]; 5° C., time 0.5): 21.0% | Solvents (Water) Results ([2]; 5° C., time 1): 20.6% | Solvents (Water) Results ([2]; 5° C., time 2): 21.1% | Solvents (Water) Results ([2]; 5° C., time 3): 21.3% | Solvents (Water) Results ([2]; 5° C., time 6): 21.1% | Solvents (Water) Results ([2]; 5° C., time 9): 21.1% | Solvents (Water) Results ([2]; 5° C., time 12): 21.9% | Solvents (Water) Results ([2]; 25° C./60% RH, time 0): 21.0% | Solvents (Water) Results ([2]; 25° C./60% RH, time 0.25): 21.1% | Solvents (Water) Results ([2]; 25° C./60% RH, time 0.5): 21.1% | Solvents (Water) Results ([2]; 25° C./60% RH, time 0.75): 20.1% | Solvents (Water) Results ([2]; 25° C./60% RH, time 1): 20.1% | Solvents (Water) Results ([2]; 25° C./60% RH, time 3): 20.7% | Solvents (Water) Results ([2]; 25° C./60% RH, time 6): 21.3% | Solvents (Water) Results ([2]; 25° C./60% RH, time 12): 21.7% | Solvents (Water) Results ([2]; RT/uncontrolled RH, time 0): 21.0% | Solvents (Water) Results ([2]; RT/uncontrolled RH, time 0.25): 21.3% | Solvents (Water) Results ([2]; RT/uncontrolled RH, time 0.5): 20.8% | Solvents (Water) Results ([2]; RT/uncontrolled RH, time 0.75): 20.6% | Solvents (Water) Results ([2]; RT/uncontrolled RH, time 1): 20.6% | Solvents (Water) Results ([2]; RT/uncontrolled RH, time 2): 21.1% | Solvents (Water) Results ([2]; RT/uncontrolled RH, time 3): 21.1% | change in water content over time [2, 10]: does not change significantly over time | water content [2, 10]: approximately 21% | change in water content over time [2, 11]: does not change significantly over time | water content [2, 11]: approximately 21%

Nc1nc2[nH]cc(CCc3ccc(C(=O)N[C@@H](CCC(=O)O)C(=O)O)cc3)c2c(=O)[nH]1 [Lot D, pemetrexed disodium]
change in the percent total related substances over time [1, 3]: did not change significantly over time | change in the percent total related substances over time [1, 12]: did not increase somewhat over time | Total Related Substances Results ([1]; accelerated conditions 25° C., 60% relative humidity, 0 months): 0.31% of Total | Total Related Substances Results ([1]; accelerated conditions 25° C., 60% relative humidity, 1 month): 0.31% of Total | Total Related Substances Results ([1]; accelerated conditions 25° C., 60% relative humidity, 2 months): 0.45% of Total | Total Related Substances Results ([1]; accelerated conditions 25° C., 60% relative humidity, 3 months): 0.40% of Total | Total Related Substances Results ([1]; accelerated conditions 25° C., 60% relative humidity, 6 months): 0.32% of Total | Total Related Substances Results ([1]; stored at 5° C., 0 months): 0.31% of Total | Total Related Substances Results ([1]; stored at 5° C., 3 months): 0.35% of Total | Total Related Substances Results ([1]; stored at 5° C., 6 months): 0.33% of Total | Total Related Substances Results ([1]; stored at 5° C., 9 months): 0.42% of Total | Total Related Substances Results ([1]; stored at 5° C., 12 months): 0.24% of Total | change in water content over time [2, 12]: shows an increase in water content to the heptahydrate form | Solvents Results ([2]; accelerated conditions 25° C., 60% relative humidity, 0 months, water only): 8.5% of Total | Solvents Results ([2]; accelerated conditions 25° C., 60% relative humidity, 1 month, water only): 14.0% of Total | Solvents Results ([2]; accelerated conditions 25° C., 60% relative humidity, 2 months, water only): 20.5% of Total | Solvents Results ([2]; accelerated conditions 25° C., 60% relative humidity, 3 months, water only): 20.8% of Total | Solvents Results ([2]; accelerated conditions 25° C., 60% relative humidity, 6 months, water only): 21.2% of Total | Solvents Results [2, 9]: 8.5% of Total | Solvents Results ([2]; stored at 5° C., 3 months): 14.0% of Total | Solvents Results ([2]; stored at 5° C., 6 months): 18.2% of Total | Solvents Results ([2]; stored at 5° C., 9 months): 21.1% of Total | Solvents Results ([2]; stored at 5° C., 12 months): 21.7% of Total

Nc1nc2[nH]cc(CCc3ccc(C(=O)N[C@@H](CCC(=O)O)C(=O)O)cc3)c2c(=O)[nH]1 [Lot C, pemetrexed disodium]
change in the percent total related substances over time [1, 3]: did increase somewhat over time | change in the percent total related substances over time ([1]; accelerated conditions 30° C.): did change significantly over time | Total Related Substances Results [1, 4]: 0.38% of Total | Total Related Substances Results [1, 5]: 0.6% of Total | Total Related Substances Results [1, 6]: 0.76% of Total | Total Related Substances Results [1, 7]: 0.79% of Total | Total Related Substances Results [1, 8]: 1.33% of Total | Total Related Substances Results ([1]; stored at 5° C., 0 months): 0.38% of Total | Total Related Substances Results ([1]; stored at 5° C., 3 months): 0.79% of Total | Total Related Substances Results ([1]; stored at 5° C., 6 months): 0.79% of Total | Total Related Substances Results ([1]; stored at 5° C., 12 months): 0.51% of Total | Total Related Substances Results ([1]; stored at 5° C., 18 months): 0.43% of Total | Total Related Substances Results ([1]; stored at 5° C., 24 months): 0.44% of Total | Solvents Results [2, 4]: 8.8% of Total | Solvents Results [2, 5]: 20.6% of Total | Solvents Results [2, 6]: 19.3% of Total | Solvents Results [2, 7]: 17.2% of Total | Solvents Results [2, 8]: 8.9% of Total | Solvents Results [2, 9]: 8.8% of Total | Solvents Results ([2]; stored at 5° C., 3 months): 16.7% of Total | Solvents Results ([2]; stored at 5° C., 6 months): 8.8% of Total | Solvents Results ([2]; stored at 5° C., 12 months): 21.0% of Total | Solvents Results ([2]; stored at 5° C., 18 months): 20.8% of Total | Solvents Results ([2]; stored at 5° C., 24 months): 20.4% of Total

Nc1nc2[nH]cc(CCc3ccc(C(=O)N[C@@H](CCC(=O)O)C(=O)O)cc3)c2c(=O)[nH]1 [Lot A, pemetrexed disodium]
change in the percent total related substances over time [1, 3]: did not change significantly over time | change in the percent total related substances over time ([1]; accelerated conditions 30° C.): did change significantly over time | Total Related Substances Results [1, 4]: 0.24% of Total | Total Related Substances Results [1, 5]: 0.35% of Total | Total Related Substances Results [1, 6]: 0.41% of Total | Total Related Substances Results [1, 7]: 0.6% of Total | Total Related Substances Results [1, 8]: 1.1% of Total | Total Related Substances Results ([1]; stored at 5° C., 0 months): 0.24% of Total | Total Related Substances Results ([1]; stored at 5° C., 3 months): 0.26% of Total | Total Related Substances Results ([1]; stored at 5° C., 6 months): 0.27% of Total | Total Related Substances Results ([1]; stored at 5° C., 12 months): 0.28% of Total | Total Related Substances Results ([1]; stored at 5° C., 18 months): 0.4% of Total | Total Related Substances Results ([1]; stored at 5° C., 24 months): 0.4% of Total | Solvents Results [2, 4]: 10.2% of Total | Solvents Results [2, 5]: 10.9% of Total | Solvents Results [2, 6]: 10.6% of Total | Solvents Results [2, 7]: 10.7% of Total | Solvents Results [2, 8]: 9.3% of Total | Solvents Results [2, 9]: 10.2% of Total | Solvents Results ([2]; stored at 5° C., 3 months): 22.0% of Total | Solvents Results ([2]; stored at 5° C., 6 months): 21.1% of Total | Solvents Results ([2]; stored at 5° C., 12 months): 21.5% of Total | Solvents Results ([2]; stored at 5° C., 18 months): 22.3% of Total | Solvents Results ([2]; stored at 5° C., 24 months): 21.1% of Total
